In ChEMBL document CHEMBL1201862, “PubChem BioAssay data set” (2004):
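Growth conditions: 96-well plates. Treatment: test compound, 48 hours, 5 concentrations. Analysis: linear interpolation between bracketing concentrations; unreached endpoints set to highest concentration. GI50: concentration for 50% inhibition of growth.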 Activity calls are given as the source filed them. Rule as the data show it: active = GI50 up to about 1.1 µM and inactive = higher.

Tests used:
Experiment in all cases: inhibition of tumour cell growth, NCI panel, 48 h
SR = tested on: SR
SF-539 = tested on: SF-539
HCT-116 = tested on: HCT-116
UO-31 = tested on: UO-31
NCI-H522 = tested on: NCI-H522
OVCAR-5 = tested on: OVCAR-5
COLO 205 = tested on: COLO 205
NCI-H226 = tested on: NCI-H226
EKVX = tested on: EKVX
OVCAR-8 = tested on: OVCAR-8
U-251 = tested on: U-251
HT-29 = tested on: HT-29
HOP-62 = tested on: HOP-62
SK-OV-3 = tested on: SK-OV-3
LOX IMVI = tested on: LOX IMVI
A498 = tested on: A498
SW-620 = tested on: SW-620
A549 = tested on: A549
HOP-92 = tested on: HOP-92
DU-145 = tested on: DU-145

Measured: GI50

CC1CC2=Nc3ccccc3NC(c3ccccc3)C2=C(O)O1 (stereo not given)
inactive: SR 63.1 µM | SF-539 > 100 µM | HCT-116 > 100 µM | UO-31 > 100 µM | NCI-H522 47.1 µM | OVCAR-5 > 100 µM | COLO 205 > 100 µM | NCI-H226 > 100 µM | EKVX > 100 µM | OVCAR-8 > 100 µM | U-251 > 100 µM | HT-29 > 100 µM | HOP-62 > 100 µM | SK-OV-3 > 100 µM | LOX IMVI > 100 µM | A498 > 100 µM | SW-620 > 100 µM | A549 > 100 µM

CCN(CC)CC(C)(C)C(=O)/C=C/c1ccc(C)cc1
inactive: SR 3.61 µM | SF-539 13.3 µM | HCT-116 4.3 µM | UO-31 10.5 µM | NCI-H522 3.03 µM | OVCAR-5 14.5 µM | HOP-92 1.91 µM | EKVX 4.88 µM | OVCAR-8 11.8 µM | U-251 15.3 µM | HT-29 3.86 µM | HOP-62 18.5 µM | SK-OV-3 22.6 µM | LOX IMVI 11 µM | A498 4.54 µM | SW-620 3.55 µM | A549 12.9 µM

Cc1ccccc1NC(=O)CC(=O)N1N=C(N2c3ccccc3Sc3ccccc32)CC1c1ccccc1 (stereo not given)
inactive: SR > 100 µM | SF-539 > 100 µM | HCT-116 > 100 µM | UO-31 > 100 µM | OVCAR-5 > 100 µM | COLO 205 > 100 µM | HOP-92 > 100 µM | NCI-H226 > 100 µM | EKVX > 100 µM | OVCAR-8 > 100 µM | U-251 > 100 µM | HT-29 > 100 µM | HOP-62 > 100 µM | SK-OV-3 > 100 µM | LOX IMVI > 100 µM | A498 > 100 µM | SW-620 > 100 µM | A549 > 100 µM

CN(CCO)c1nc(=O)c2c([nH]1)CCC2
inactive: SR > 100 µM | SF-539 > 100 µM | HCT-116 > 100 µM | UO-31 > 100 µM | NCI-H522 > 100 µM | OVCAR-5 > 100 µM | COLO 205 > 100 µM | HOP-92 > 100 µM | NCI-H226 > 100 µM | EKVX > 100 µM | OVCAR-8 > 100 µM | U-251 > 100 µM | HT-29 > 100 µM | HOP-62 > 100 µM | SK-OV-3 > 100 µM | LOX IMVI > 100 µM | SW-620 > 100 µM | A549 > 100 µM

O=C1NC(=O)/C(=C/c2ccc(S(=O)(=O)N/N=C/c3ccccc3)cc2)N1
inactive: DU-145 > 100 µM | HCT-116 > 100 µM | UO-31 > 100 µM | OVCAR-5 > 100 µM | COLO 205 > 100 µM | HOP-92 > 100 µM | NCI-H226 > 100 µM | EKVX > 100 µM | OVCAR-8 > 100 µM | U-251 > 100 µM | HT-29 > 100 µM | HOP-62 > 100 µM | SK-OV-3 > 100 µM | LOX IMVI > 100 µM | A498 2.75 µM | SW-620 > 100 µM | A549 > 100 µM

CC1CN=C(N(C(=O)Nc2ccc(Cl)c(Cl)c2)c2ccccc2)S1 (stereo not given)
inactive: SF-539 39.4 µM | DU-145 91.8 µM | HCT-116 42.6 µM | UO-31 > 100 µM | OVCAR-5 > 100 µM | COLO 205 37.2 µM | HOP-92 38.9 µM | EKVX 71.1 µM | OVCAR-8 87.1 µM | U-251 53.5 µM | HT-29 34.8 µM | HOP-62 > 100 µM | LOX IMVI 28.7 µM | A498 > 100 µM | SW-620 72.1 µM | A549 53.7 µM

COC1CCC(OS(C)(=O)=O)CO1 (stereo not given)
inactive: SR 24.7 µM | SF-539 > 100 µM | HCT-116 > 100 µM | UO-31 > 100 µM | NCI-H522 > 100 µM | OVCAR-5 42.2 µM | COLO 205 > 100 µM | HOP-92 > 100 µM | U-251 > 100 µM | HT-29 > 100 µM | HOP-62 > 100 µM | SK-OV-3 > 100 µM | A498 > 100 µM

Fc1ccccc1C1SCc2nc3cc4ccccc4cc3n21 (stereo not given)
inactive: DU-145 60.8 µM | HCT-116 24.9 µM | UO-31 > 100 µM | NCI-H522 18.7 µM | OVCAR-5 > 100 µM | COLO 205 86.7 µM | NCI-H226 75.5 µM | EKVX 67.6 µM | OVCAR-8 36.6 µM | U-251 33.7 µM | HT-29 43.9 µM | HOP-62 > 100 µM | SK-OV-3 71.6 µM | SW-620 85.7 µM | A549 64.9 µM

Cc1ccccc1NC(=O)C(=O)C1CN(c2ccccc2)N=C1N (stereo not given)
inactive: SR > 100 µM | SF-539 > 100 µM | HCT-116 > 100 µM | UO-31 > 100 µM | NCI-H522 > 100 µM | HOP-92 > 100 µM | NCI-H226 > 100 µM | EKVX > 100 µM | OVCAR-8 > 100 µM | U-251 > 100 µM | HT-29 > 100 µM | HOP-62 > 100 µM | SK-OV-3 > 100 µM | A498 > 100 µM | A549 > 100 µM

CC(C)(C)C1=NO[C@H]2[C@@H](NC(=O)c3ccccc3)CC[C@@H]12
inactive: SR > 100 µM | SF-539 > 100 µM | HCT-116 > 100 µM | UO-31 > 100 µM | NCI-H522 > 100 µM | OVCAR-5 > 100 µM | COLO 205 > 100 µM | HOP-92 98.2 µM | NCI-H226 > 100 µM | OVCAR-8 > 100 µM | U-251 > 100 µM | HT-29 > 100 µM | HOP-62 > 100 µM | SK-OV-3 > 100 µM | LOX IMVI > 100 µM | SW-620 > 100 µM | A549 > 100 µM

NC(=O)OCC1=C(COC(N)=O)C(=O)c2c(O)ccc(O)c2C1=O
inactive: SR > 100 µM | SF-539 > 100 µM | HCT-116 > 100 µM | UO-31 > 100 µM | NCI-H522 > 100 µM | OVCAR-5 > 100 µM | COLO 205 58.7 µM | HOP-92 > 100 µM | NCI-H226 > 100 µM | EKVX > 100 µM | OVCAR-8 > 100 µM | U-251 > 100 µM | HT-29 > 100 µM | HOP-62 > 100 µM | SK-OV-3 > 100 µM | A498 > 100 µM | SW-620 61.1 µM | A549 > 100 µM

Cn1cnc([N+](=O)[O-])c1Sc1nc2cc([N+](=O)[O-])ccc2[nH]1
inactive: SR 9.29 µM | SF-539 19.1 µM | HCT-116 23.4 µM | UO-31 19.1 µM | OVCAR-5 48.4 µM | COLO 205 10.4 µM | HOP-92 17.3 µM | NCI-H226 40.2 µM | EKVX 10.5 µM | OVCAR-8 14.7 µM | U-251 27 µM | HT-29 36.4 µM | HOP-62 > 100 µM | SK-OV-3 22 µM | LOX IMVI 24.7 µM | A498 29.6 µM | SW-620 27.9 µM | A549 29.3 µM
